In patent US9682965B2, “Fumagillol heterocyclic compounds and methods of making and using same” (Zafgen, Inc., priority 2015, dated 2017) one finds inhibition in vivo data, which are given here for 18 molecules.

Structures can show the parent of a compound that is named as a salt.

The test deals with Diet Induced Obese (DIO) C57BL/6 mice. Briefly: 10 day DIO mouse model (body weight, food intake, hematology, blood chemistry). As to conditions: 240 h; DIO mouse, 0.3 mpk sc, once a day for 10 days; read-out: DIO Mouse 10-day weight loss vs vehicle. Type of test: in vivo. An excerpt:
The objective of this study design was to investigate the efficacy of disclosed compounds in a 10 day DIO mouse model. Effects on body weight, food intake, hematology and blood chemistry were the primary readouts of this study design. […] Mice were fed Research Diets D12492 (60% Kcal fat, 20% Kcal carbohydrate and 20% protein) and provided water ad libitum. DIO mice were received and housed in the facility for approximately two weeks prior to the start of test article administration. On Day −4 or −3, mice were randomized into study groups based on body weight and body weights were continued to be recorded daily for the duration of the study. Daily food intake was assessed starting on Study Day −2 by weighing of the food with hopper together to avoid loss of food in transfer.
Compounds were formulated into a 100% DMSO stock (at 9 mg/mL) prior to the start, and further diluted into the target working concentration using the vehicle of 10% DMSO in water. Prior to test article administration, starting on Day −3 a dosing acclimation occured with all animals receiving a subcutaneous injection of vehicle (10% DMSO) only for 3 days. Starting on Day 1, test compounds or vehicle were administered based on individual body weight, subcutaneously, once a day for 10 days. All mice were sacrificed on Day 11, 24 hours following the final dosing on Day 10. After sacrifice, whole blood was collected and analyzed for hematology and blood chemistry parameters.
Compounds were tested vs. vehicle at various doses (1.0, 0.5, 0.3, 0.1, 0.03 mpk sc (mg per kg animal weight delivered subcutaneously), and the results are shown in Table 2 below.
Turning to `CCN(CC)CC[C@@H]1CCCN1C(=O)O[C@@H]1CC[C@]2(CO2)[C@@H]([C@@]2(C)O[C@@H]2CC=C(C)C)[C@@H]1OC` [Example 51, (S)-((3R,4S,5S,6R)-5-methoxy-4-((2R,3R)-2-methyl-3-(3-methylbut-2-enyl)oxiran-2-yl)-1-oxaspiro[2.5]octan-6-yl) 2-(2-(diethylamino)ethyl)pyrrolidine-1-carboxylate formate], the inhibition in vivo at 0.3 mg/kg came out at 4.3%.

Turning to `CO[C@@H]1[C@H](OC(=O)N2CC[C@@H](CCN3CC(F)(F)C3)C2)CC[C@]2(CO2)[C@H]1[C@@]1(C)O[C@@H]1CC=C(C)C` [Example 58, (R)-((3R,4S,5S,6R)-5-methoxy-4-((2R,3R)-2-methyl-3-(3-methylbut-2-enyl)oxiran-2-yl)-1-oxaspiro[2.5]octan-6-yl) 3-(2-(3,3-difluoroazetidin-1-yl)ethyl)pyrrolidine-1-carboxylate], the inhibition in vivo at 0.3 mg/kg was 15.8%. For the molecule `CO[C@@H]1[C@H](OC(=O)N2CC(CCC(=O)NCCN3CCOCC3)C2)CC[C@]2(CO2)[C@H]1[C@@]1(C)O[C@@H]1CC=C(C)C` [Example 67, (3R,4S,5S,6R)-5-methoxy-4-((2R,3R)-2-methyl-3-(3-methylbut-2-enyl)oxiran-2-yl)-1-oxaspiro[2.5]octan-6-yl 3-(3-(2-morpholinoethylamino)-3-oxopropyl)azetidine-1-carboxylate], the inhibition in vivo at 0.3 mg/kg stood at 2.8%. With `CCN(CC)CCNC(=O)OCC1CN(C(=O)O[C@@H]2CC[C@]3(CO3)[C@@H]([C@@]3(C)O[C@@H]3CC=C(C)C)[C@@H]2OC)C1` [Example 68, (3R,4S,5S,6R)-5-methoxy-4-((2R,3R)-2-methyl-3-(3-methylbut-2-en-1-yl)oxiran-2-yl)-1-oxaspiro[2.5]octan-6-yl 3-((((2-(diethylamino)ethyl)carbamoyl)oxy)methyl)azetidine-1-carboxylate], the inhibition in vivo at 0.3 mg/kg was 0%. Consider `CO[C@@H]1[C@H](OC(=O)N2CC(COC(=O)N(C)C)C2)CC[C@]2(CO2)[C@H]1[C@@]1(C)O[C@@H]1CC=C(C)C` [Example 70, (3R,4S,5S,6R)-5-methoxy-4-((2R,3R)-2-methyl-3-(3-methylbut-2-enyl)oxiran-2-yl)-1-oxaspiro[2.5]octan-6-yl 3-((dimethylcarbamoyloxy)methyl)azetidine-1-carboxylate], for which the inhibition in vivo at 0.3 mg/kg is 14.5%. Take `CCNC(=O)OC1CN(C(=O)O[C@@H]2CC[C@]3(CO3)[C@@H]([C@@]3(C)O[C@@H]3CC=C(C)C)[C@@H]2OC)C1` [Example 75, (3R,4S,5S,6R)-5-methoxy-4-((2R,3R)-2-methyl-3-(3-methylbut-2-enyl)oxiran-2-yl)-1-oxaspiro[2.5]octan-6-yl 3-(ethylcarbamoyloxy)azetidine-1-carboxylate]: the inhibition in vivo at 0.3 mg/kg amounted to 12.8%. For the molecule `CO[C@@H]1[C@H](OC(=O)N2CC(OC(=O)NC(C)C)C2)CC[C@]2(CO2)[C@H]1[C@@]1(C)O[C@@H]1CC=C(C)C` [Example 76, (3R,4S,5S,6R)-5-methoxy-4-((2R,3R)-2-methyl-3-(3-methylbut-2-enyl)oxiran-2-yl)-1-oxaspiro[2.5]octan-6-yl 3-(isopropylcarbamoyloxy)azetidine-1-carboxylate], the inhibition in vivo at 0.3 mg/kg was 15.4%. `CO[C@@H]1[C@H](OC(=O)N2CC(OC(=O)N(C)C)C2)CC[C@]2(CO2)[C@H]1[C@@]1(C)O[C@@H]1CC=C(C)C` [Example 77, (3R,4S,5S,6R)-5-methoxy-4-((2R,3R)-2-methyl-3-(3-methylbut-2-enyl)oxiran-2-yl)-1-oxaspiro[2.5]octan-6-yl 3-(dimethylcarbamoyloxy)azetidine-1-carboxylate]: the inhibition in vivo at 0.3 mg/kg stood at 16.3%. In the case of `CO[C@@H]1[C@H](OC(=O)N2CC(OC(=O)N3CCS(=O)(=O)CC3)C2)CC[C@]2(CO2)[C@H]1[C@@]1(C)O[C@@H]1CC=C(C)C` [Example 79, 1-(((3R,4S,5S,6R)-5-methoxy-4-((2R,3R)-2-methyl-3-(3-methylbut-2-enyl)oxiran-2-yl)-1-oxaspiro[2.5]octan-6-yloxy)carbonyl)azetidin-3-yl thiomorpholine 2,2-dioxide-4-carboxylate formate], the inhibition in vivo at 0.3 mg/kg is 0.1%. As to `CO[C@@H]1[C@H](OC(=O)N2CC(OC(=O)NCC(C)(C)O)C2)CC[C@]2(CO2)[C@H]1[C@@]1(C)O[C@@H]1CC=C(C)C` [Example 82, (3R,4S,5S,6R)-5-methoxy-4-((2R,3R)-2-methyl-3-(3-methylbut-2-enyl)oxiran-2-yl)-1-oxaspiro[2.5]octan-6-yl 3-(2-hydroxy-2-methylpropylcarbamoyloxy)azetidine-1-carboxylate], the inhibition in vivo at 0.3 mg/kg is -0.7%. As to `COC(=O)NC1CN(C(=O)O[C@@H]2CC[C@]3(CO3)[C@@H]([C@@]3(C)O[C@@H]3CC=C(C)C)[C@@H]2OC)C1` [Example 87, (3R,4S,5S,6R)-5-methoxy-4-((2R,3R)-2-methyl-3-(3-methylbut-2-enyl)oxiran-2-yl)-1-oxaspiro[2.5]octan-6-yl 3-(methoxycarbonylamino)azetidine-1-carboxylate], the inhibition in vivo at 0.3 mg/kg is 10.9%. As for `CO[C@@H]1[C@H](OC(=O)N2CC(CCC3CCN(C)CC3)C2)CC[C@]2(CO2)[C@H]1[C@@]1(C)O[C@@H]1CC=C(C)C` [Example 90, (3R,4S,5S,6R)-5-methoxy-4-((2R,3R)-2-methyl-3-(3-methylbut-2-enyl)oxiran-2-yl)-1-oxaspiro[2.5]octan-6-yl 3-(2-(1-methylpiperidin-4-yl)ethyl)azetidine-1-carboxylate formate], the inhibition in vivo at 0.3 mg/kg turned out to be 13.5%. `CO[C@@H]1[C@H](OC(=O)N2CC(CCC3CN(CC(F)F)C3)C2)CC[C@]2(CO2)[C@H]1[C@@]1(C)O[C@@H]1CC=C(C)C` [Example 92, (3R,4S,5S,6R)-5-methoxy-4-((2R,3R)-2-methyl-3-(3-methylbut-2-enyl)oxiran-2-yl)-1-oxaspiro[2.5]octan-6-yl 3-(2-(1-(2,2-difluoroethyl)azetidin-3-yl)ethyl)azetidine-1-carboxylate]: the inhibition in vivo at 0.3 mg/kg was 20.7%. Turning to `CO[C@@H]1[C@H](OC(=O)N2CC(CC3CCN(CC(F)F)CC3)C2)CC[C@]2(CO2)[C@H]1[C@@]1(C)O[C@@H]1CC=C(C)C` [Example 94, (3R,4S,5S,6R)-5-methoxy-4-((2R,3R)-2-methyl-3-(3-methylbut-2-enyl)oxiran-2-yl)-1-oxaspiro[2.5]octan-6-yl 3-((1-(2,2-difluoroethyl)piperidin-4-yl)methyl)azetidine-1-carboxylate], the inhibition in vivo at 0.3 mg/kg came to 22.5%. For the molecule `CO[C@@H]1[C@H](OC(=O)N2CC(=CCN3CCOCC3)C2)CC[C@]2(CO2)[C@H]1[C@@]1(C)O[C@@H]1CC=C(C)C` [Example 96, (3R,4S,5S,6R)-5-methoxy-4-((2R,3R)-2-methyl-3-(3-methylbut-2-enyl)oxiran-2-yl)-1-oxaspiro[2.5]octan-6-yl 3-(2-morpholinoethylidene)azetidine-1-carboxylate], the inhibition in vivo at 0.3 mg/kg turned out to be 18.6%.

`CO[C@@H]1[C@H](OC(=O)N2CC(=CCN3CCN(CC(F)F)CC3)C2)CC[C@]2(CO2)[C@H]1[C@@]1(C)O[C@@H]1CC=C(C)C` [Example 97, (3R,4S,5S,6R)-5-methoxy-4-((2R,3R)-2-methyl-3-(3-methylbut-2-enyl)oxiran-2-yl)-1-oxaspiro[2.5]octan-6-yl 3-(2-(4-(2,2-difluoroethyl)piperazin-1-yl)ethylidene)azetidine-1-carboxylate]: the inhibition in vivo at 0.3 mg/kg was 21.3%.

In the case of `CO[C@@H]1[C@H](OC(=O)N2CC(Oc3ccccn3)C2)CC[C@]2(CO2)[C@H]1[C@@]1(C)O[C@@H]1CC=C(C)C` [Example 99, (3R,4S,5S,6R)-5-methoxy-4-((2R,3R)-2-methyl-3-(3-methylbut-2-enyl)oxiran-2-yl)-1-oxaspiro[2.5]octan-6-yl 3-(pyridin-2-yloxy)azetidine-1-carboxylate], the inhibition in vivo at 0.3 mg/kg was determined as 22.9%. Turning to `CO[C@@H]1[C@H](OC(=O)N2CC(CCC3CCN(CC(F)F)CC3)C2)CC[C@]2(CO2)[C@H]1[C@@]1(C)O[C@@H]1CCC(C)C` [Example 128, (3R,4S,5S,6R)-4-((2R,3R)-3-isopentyl-2-methyloxiran-2-yl)-5-methoxy-1-oxaspiro[2.5]octan-6-yl 3-(2-(1-(2,2-difluoroethyl)piperidin-4-yl)ethyl)azetidine-1-carboxylate], the inhibition in vivo at 0.3 mg/kg turned out to be 15.2%.
